Measured values published in article PMC10545696, “Fast functional mapping of ligand-gated ion channels” (Communications Biology, 2023).

Target: T1, P2X2 (His-rP2x2-StrepII) (Rattus norvegicus, UniProt P49653)
T1 construct: gene P2rx2; His tag and StrepII tag; homotrimer
T1 sequence (P49653 1-472): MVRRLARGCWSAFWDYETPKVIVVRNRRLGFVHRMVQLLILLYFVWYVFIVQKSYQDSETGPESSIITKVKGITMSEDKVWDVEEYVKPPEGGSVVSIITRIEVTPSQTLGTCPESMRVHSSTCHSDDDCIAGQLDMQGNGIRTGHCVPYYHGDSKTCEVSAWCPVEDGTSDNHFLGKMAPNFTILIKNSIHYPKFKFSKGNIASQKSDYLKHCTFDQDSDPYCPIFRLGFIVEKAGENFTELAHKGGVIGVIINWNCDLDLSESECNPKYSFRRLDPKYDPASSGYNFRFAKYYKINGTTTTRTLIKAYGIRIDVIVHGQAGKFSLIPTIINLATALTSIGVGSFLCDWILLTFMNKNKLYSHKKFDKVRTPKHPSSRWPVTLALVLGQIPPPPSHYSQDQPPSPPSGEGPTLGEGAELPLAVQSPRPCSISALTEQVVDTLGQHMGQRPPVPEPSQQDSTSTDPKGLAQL
Assay: whole-cell patch clamp, HEK293, multi-step microfluidic application
Format: cell-based

Nc1ncnc2c1ncn2[C@@H]1O[C@H](COP(=O)(O)OP(=O)(O)OP(=O)(O)O)[C@@H](O)[C@H]1O [ATP] gave an EC50 of 1500 ± 20 nM.
